Data reported in patent publication US10238689B2, “Methods for combating bacterial infections by killing persister cells with mitomycin C and/or cisplatin” (THE PENN STATE RESEARCH FOUNDATION, priority 2015, dated 2019).
Entries after “also recorded” stand apart in the source; their conditions may differ.

Legend:
[1] = test system: S. aureus (methicillin sensitive); assay: Planktonic antibiotic killing assay; type: cell-based, Staphylococcus aureus; settings: rich medium (TSB), MMC 10 μg/mL, ciprofloxacin 5 μg/mL, 3 h
Procedure: (§1) In order to obtain exponential and mid-stationary phase cultures in LB, buffered LB or TSB, overnight cultures (16 h) were diluted 1:1000 in fresh medium and grown to the desired turbidity (i.e., a turbidity below 2 at 600 nm for exponential phase and a turbidity of 3 to 4 at 600 nm for mid-stationary phase). Late-stationary phase cultures in LB or buffered LB were obtained by growing overnight cultures (16 h). In order to obtain exponential and late-stationary phase cultures in M9-glucose, overnight cultures (16 h) were washed diluted 1:1000 in M9-glucose and grown for the desired period of time (i.e., a turbidity of 0.4 at 600 nm for exponential phase and 24 h of growth for late-stationary phase). Anaerobically grown cultures were maintained with ˜20% CO2, ˜79% N2, and ˜1% H2. In order to obtain rifampicin-induced persister cultures in buffered LB, overnight cultures (16 h) were diluted 1:1000 in fresh medium and grown to a turbidity of 0.8 at 600 nm. Cultures were exposed to rifampicin (100 μg/mL) for 30 min, centrifuged, and resuspended in fresh medium to remove the rifampicin.

[2] = test system: E. coli K-12 BW25113 VBNC cultures; assay: VBNC antibiotic killing assay; type: cell-based, Escherichia coli; settings: 16 h
Procedure: Overnight cultures (16 h) of E. coli K-12 BW25113 grown in LB were diluted 1:1000 in LB and grown to a turbidity of 3.0 at 600 nm. Cells were washed three times with 0.85% NaCl to remove nutrients and incubated in 0.85% NaCl for 32 days until the VBNC population was ˜1,000-fold higher than the culturable population. […] Samples (0.5 mL) were diluted 1:1 with LB to stimulate cellular respiration for 10 min prior to staining with 1 μL of 1 mM RedoxSensor™ Green dye and 1 μL of 20 mM propidium iodide. Samples were visualized in a hemocytometer (Hausser Scientific, Horsham, Pa., USA) using an Olympus BX61 confocal microscope (Olympus, Tokyo, Japan) at 200× magnification in order to determine viability of the VBNC population. Cell counting data was averaged from four images and experiment was performed with at least two independent cultures.

[3] = test system: E. coli K-12 biofilm cultures; assay: Biofilm antibiotic killing assay; type: cell-based, Escherichia coli
[4] = test system: EHEC, S. aureus, and P. aeruginosa PAO1; type: cell-based; settings: mono- and co-cultures in wound-like medium, 5 h treatment
Procedure: Overnight cultures (16 h) of EHEC, S. aureus, and P. aeruginosa PAO1 were grown in LB (TSB for S. aureus), washed with 0.85% NaCl solution, and diluted 1:1000 (as mono-cultures or co-cultures) in wound-like medium (WLM) (45% Bolton broth, 50% heparinized bovine plasma, and 5% laked horse blood). […] Samples containing S. aureus were coagulated, so sections of coagulated WLM were cut and weighed add appropriate amounts of antibiotics. Coagulated samples were triturated and vortexed to release cells prior to measuring cell viability.

[5] = test system: E. coli K-12 ΔuvrA, ΔuvrB, and ΔuvrC mutants; assay: Planktonic killing of uvr deletion mutants; type: cell-based, Escherichia coli; settings: mid-stationary phase, buffered LB
Procedure: as §1

P. aeruginosa PA14 = assay: Planktonic antibiotic killing assay; type: cell-based, Pseudomonas aeruginosa; settings: mid-stationary phase, rich medium; MMC 10 μg/mL, 3 h
Procedure: as §1

[6] = test system: clinical strains of P. aeruginosa; assay: Persister cell assay, multi-drug resistant clinical strains; type: cell-based, Pseudomonas aeruginosa; settings: cisplatin 100 μg/mL
Procedure: For the persister cell assay of the pathogens, stationary-phase cells were used. Cultures of EHEC, P. aeruginosa, and S. aureus were prepared by a 1:1000 dilution of overnight grown cultures (LB medium for EHEC and P. aeruginosa, TSB for S. aureus) into fresh buffered LB medium for EHEC, M9-glucose for P. aeruginosa, and TSB for S. aureus and re-growing the cells to a turbidity of 3 to 4 at 600 nm for EHEC and S. aureus and growing for 24 h for P. aeruginosa. […]

S. aureus ATCC29213 = assay: Persister cell assay of pathogens (stationary phase); type: cell-based, Staphylococcus aureus; settings: stationary phase cells, TSB; cisplatin 500 μg/mL, 1.7×MIC, 3 h
Procedure: For the persister cell assay of the pathogens, stationary-phase cells were used. Cultures of EHEC, P. aeruginosa, and S. aureus were prepared by a 1:1000 dilution of overnight grown cultures (LB medium for EHEC and P. aeruginosa, TSB for S. aureus) into fresh buffered LB medium for EHEC, M9-glucose for P. aeruginosa, and TSB for S. aureus and re-growing the cells to a turbidity of 3 to 4 at 600 nm for EHEC and S. aureus and growing for 24 h for P. aeruginosa. Stationary-phase cultures of EHEC (buffered LB medium), P. aeruginosa (M9-glucose medium), and S. aureus (TSB medium) were then treated with cisplatin (500 μg/mL for EHEC and S. aureus, 250 μg/mL for P. aeruginosa) for 3 h (250 mL flask, 250 rpm).

[7] = test system: E. coli K-12 persister cells; assay: Rifampicin-induced persister cell killing assay; type: cell-based, Escherichia coli
Procedure: Rifampicin-pretreatment was used to convert nearly all the E. coli exponentially-growing cells to persister cells. In brief, overnight cultures (16 h) of E. coli BW25113 were diluted 1:1000 in buffered LB and grown to a turbidity of 0.8 at 600 nm (250 mL flask, 250 rpm). Cultures were treated with rifampicin (100 μg/mL) for 30 min (250 mL flask, 250 rpm), centrifuged, and resuspended in fresh medium to remove the rifampicin. A 1 mL culture was used for a drop assay to check cell viability at 0 h. […] After 3 h, 1 mL of culture was centrifuged at 10,000 rpm for 3 min, the supernatant was discarded, the cells were resuspended in 1 mL of normal saline, and the cell suspension was serially diluted for a drop assay to check cell viability. In addition, 1 mL samples were centrifuged, and the cell pellet resuspended in 150 μL of normal saline and spread on LB agar.
To test whether lower concentrations than 500 μg/mL of cisplatin generate resistant mutants, 5 mL cultures of rifampicin-induced persister cells were treated with 200 μg/mL of cisplatin and cells were enumerated by the drop assay using LB agar, LB agar with 200 μg/mL of cisplatin (LBCP200), and LB agar with 500 μg/mL of cisplatin (LBCP500).

[8] = treatment with 2×MIC (200 μg/mL) of cisplatin

| SMILES | survival ([1]; exponential phase) | survival ([1]; mid-stationary phase) | fold more effective at killing VBNC cells than ciprofloxacin ([2]; VBNC population (RedoxSensor Green), MMC 10 μg/mL vs ciprofloxacin 5 μg/mL) [fold] | survival of the culturable population ([2]; culturable population of VBNC cultures, MMC 10 μg/mL, ciprofloxacin 5 μg/mL) | fold more susceptible to MMC than ciprofloxacin ([3]; anaerobic biofilm cultures in M9-glucose) | fold more cells killed than ciprofloxacin ([3]; biofilms in M9-glucose, 24 h of treatment) | biofilm cell viability after treatment ([3]; biofilms in M9-glucose, MMC 10 μg/mL, 24 h) | effectiveness under wound-like conditions [4] | time of treatment to eradication (beyond the limit of detection) [5] | survival (P. aeruginosa PA14) [%] | survival ([6]; strain INP-37) [%] | survival ([6]; strain INP-57M) [%] | survival ([6]; strain INP-64M) [%] | survival ([6]; strain RME-101) [%] | survival (S. aureus ATCC29213) [%] | colonies from 1 mL samples ([7]; after the 3 h cisplatin treatment (500 μg/mL)) [colonies] | number of persister cells after treatment (drop assay) ([7]; cisplatin 500 μg/mL, 3 h, limit of detection) [cells/mL] | colonies on LBCP500 agar plates (spontaneous resistant mutants) [7, 8] | survivors on LBCP200 agar plates [7, 8] [%] |
| --- | --- | --- | --- | --- | --- | --- | --- | --- | --- | --- | --- | --- | --- | --- | --- | --- | --- | --- | --- |
| CO[C@@]12[C@H](COC(N)=O)C3=C(C(=O)C(C)=C(N)C3=O)N1C[C@@H]1N[C@@H]12 [MMC, mitomycin C] | eradicating | eradicating | 7 | eradicates the culturable population; also recorded: eradicating the culturable population | 2,500 fold | 100,000 fold | nearly eliminating cells | eradicates pathogens; also recorded: more effective than ciprofloxacin and ampicillin | less than 30 min | 0.0038±0.0005 | – | – | – | – | – | – | – | – | – |
| N.N.[Cl][Pt][Cl] [cisplatin, cis-diamminodichloroplatinum(II)] | – | – | – | – | – | – | – | – | – | – | 0.05±0.06 | 0.01±0.00 | 0.02±0.00 | 0.02±0.03 | 0.0001±0.0001 | 37±5 | < 100 | no colonies were found | 0.08 |
